Laboratory results published in patent publication US7288631B2 (Euroscreen, s.a., priority 1997, dated 2007).

Experiments:
Format in all cases: cell-based
[1] = molecular target: T1, P2Y11 receptor (Homo sapiens, UniProt Q96G91, DUP173-173); assay: cAMP accumulation in CHO-K1 cells transfected with the new receptor; conditions: for Inhibition of the cAMP response to ATP (30 μM): indomethacin 10 μg/ml from 30 min before, 8 (p-sulfophenyl) theophylline 100 μM; for cAMP content in response to nucleotide: 100 μM, pool of G418 resistant P2Y11-transfected CHO-K1 clones
T1 construct: expressed in transfected cells; host or cells: 1321N1 astrocytoma cells and CHO-K1 cells, G418-selected, pEFIN3 bicistronic vector
T1 sequence (Q96G91 with tags, fused parts or gaps DUP173-173): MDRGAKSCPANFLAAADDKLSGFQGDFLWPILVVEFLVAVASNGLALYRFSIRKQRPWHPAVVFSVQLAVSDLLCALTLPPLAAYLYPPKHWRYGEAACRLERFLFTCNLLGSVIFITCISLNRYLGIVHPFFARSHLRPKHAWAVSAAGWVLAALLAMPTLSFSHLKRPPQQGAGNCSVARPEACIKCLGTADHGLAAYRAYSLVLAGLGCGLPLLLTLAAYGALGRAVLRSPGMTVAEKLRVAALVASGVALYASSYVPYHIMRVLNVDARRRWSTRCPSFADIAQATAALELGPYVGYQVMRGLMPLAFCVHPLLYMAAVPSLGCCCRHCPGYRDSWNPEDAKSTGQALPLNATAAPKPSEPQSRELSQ
Experimental: (§1) The complete sequence of the new receptor according to the invention was subcloned between the Hind III and Nhe I sites of the bicistronic pEFIN3 expression vector. 1321N1 and CHO-K1 cells were transfected with the recombinant pEFIN3 plasmid or with the plasmid alone using the calcium phosphate precipitation method as described (19). The transfected cells were selected with 400 μg/ml G418 in complete medium (10% FCS, 100 units/ml penicillin, 100 μg/ml streptomycin and 2.5 μg/ml amphotericin B in Duibecco's modified Eagle's medium (DMEM)) two days after transfection and maintained in the same medium (10).
(§2) Stably transfected CHO-K1 or 1321N1 cell lines were spread on Petri dishes (150.000 cells per dish) and cultured in Ham's F12 or DMEM medium containing 10% FCS, antibiotics, amphotericin, sodium pyruvate and 400 μg/ml G418. Cells were preincubated for 30 min in KRH buffer with Rolipram (25 μM) and incubated for different times in the presence of the agonists (15 min in most experiments). The incubation was stopped by the addition of 1 ml HC1 0.1 M. The incubation medium was dried up, resuspended in water and diluted as required. Cyclic AMP was quantified by radioimmunoassay after acetylation as previously described (21).
(§3) A much lower but significant endogeneous response due to the degradation of adenine nucleotides into adenosine was also obtained in the 1321N1 cells transfected with the vector alone. […] We therefore used CHO-K1 cells in order to characterize the coupling of the new receptor to the cAMP pathway. A pool of G418 resistant CHO-K1 clones was first tested for its response to several nucleotides at a concentration of 100 μM. […] The rank order of potency was the same as in the inositol phosphate study on 1321N1 cells.

[2] = molecular target: T1, P2Y11 receptor; assay: Inositol trisphosphate (IP3) accumulation in 1321N1 astrocytoma cells transfected with the new receptor; conditions: for Agonist efficacy compared with ATP: same for the phosphoinositide and cAMP pathways; for IP3 accumulation in response to nucleotide: 100 μM, pool of G418-resistant P2Y11-transfected 1321N1 clones; for Effect on IP3 accumulation in concentration-action curves: large range of concentrations, FIG. 4A
Experimental: as §1
1321N1 cells were labelled for 24 hours with […] [^3H] inositol in inositol free DMEM containing 5% FCS, antibiotics, amphotericin, sodium pyruvate and 400 μg/ml G418. Cells were washed twice with Krebs-Ringer Hepes (KRH) buffer of the following composition (124 mM NaCl, 5 mM KC1, 1.25 mM MgSO4, 1.45 mM CaCl2, 1.25 mM KH2PO4, 25 mM Hepes (pH:7.4) and 8 mM glucose) and incubated in the same medium for 30 min. The cells were then challenged by various nucleotides for 30 s. The incubation was stopped by the addition of an ice cold 3% perchioric acid solution. IP were extracted and separated on Dowex columns as previously described (20).
(§4) The complete sequence of the new receptor was introduced in the pEFIN3 expression vector in order to transfect the 1321N1 astrocytoma cell line, used previously to characterize several P2Y subtypes (6, 10, 12). The pool of G418-resistant clones was tested for its functional response to several nucleotides.

[3] = molecular target: T1, P2Y11 receptor; assay: [Ca2+]i measurements on 1321N1 transfected cells; conditions: 10 μM
Experimental: as §4, with “nucleotides. […] The effect of ADP and 2MeSADP were minimal.” for “nucleotides.”

[4] = test system: CHO-K1 cells transfected with the vector alone; assay: cAMP in CHO-K1 cells transfected with the vector alone or untransfected; conditions: 100 μM
Experimental: as §1
as §2, with “(21). […]” for “(21).”

[5] = molecular target: T1, P2Y11 receptor; assay: cAMP measurement in 1321N1 cells transfected with the new receptor
Experimental: as §2, §3

Compound	cAMP content in response to nucleotide [1]	IP3 accumulation in response to nucleotide ([2]; 30 s)	other results
COc1ccc2c(c1)c(CC(=O)O)c(C)n2C(=O)c1ccc(Cl)cc1 [indomethacin, Indomethacin]			Inhibition of the cAMP response to ATP (30 μM) [1]: inhibited neither
CSc1nc(N)c2ncn([C@@H]3O[C@H](COP(=O)(O)OP(=O)(O)OP(=O)(O)O)[C@@H](O)[C@H]3O)c2n1 [2MeSATP, 2-methylthio-ATP]			EC50 ([2]; P2Y11-transfected 1321N1 cells, 30 s, means±range of two independent experiments): 118 ± 15 µM; Agonist efficacy compared with ATP [2]: same maximal effect than ATP but presented a lower potency
O=c1ccn([C@@H]2O[C@H](COP(=O)(O)OP(=O)(O)O)[C@@H](O)[C@H]2O)c(=O)[nH]1 [UDP]	completely inactive	inactive	
CSc1nc(N)c2ncn([C@@H]3O[C@H](COP(=O)(O)OP(=O)(O)O)[C@@H](O)[C@H]3O)c2n1 [2MeSADP, 2-methylthio-ADP]			Effect on IP3 accumulation in concentration-action curves [2]: minimal; Agonist efficacy compared with ATP [2]: almost inactive
O=c1ccn([C@@H]2O[C@H](COP(=O)(O)OP(=O)(O)OP(=O)(O)O)[C@@H](O)[C@H]2O)c(=O)[nH]1 [UTP]	completely inactive	inactive	
Nc1ncnc2c1ncn2[C@@H]1O[C@H](COP(=O)(O)OP(=O)(O)OP(=O)(O)OP(=O)(O)OC[C@H]2O[C@@H](n3cnc4c(N)ncnc43)[C@H](O)[C@@H]2O)[C@@H](O)[C@H]1O [AP4A]		inactive	
Nc1ncnc2c1ncn2[C@@H]1O[C@H](COP(=O)(O)OP(=O)(O)OP(=O)(O)O)[C@@H](O)[C@H]1O [ATP]	strong increase in the cAMP content	strong inositol trisphosphate (IP3) accumulation	[Ca2+]i response [3]: response; cAMP response after short stimulation ([1]; after 2 min of stimulation, CHO-K1): significant cAMP response; cAMP content in vector-alone cells [4]: inactive; cAMP response [5]: strong cAMP increase
Nc1ncnc2c1ncn2[C@@H]1O[C@H](CO)[C@@H](O)[C@H]1O [adenosine]	completely inactive	inactive	
Cn1c(=O)c2[nH]c(-c3ccc(S(=O)(=O)O)cc3)nc2n(C)c1=O [8 (p-sulfophenyl) theophylline]			Inhibition of the cAMP response to ATP (30 μM) [1]: inhibited neither
Nc1ncnc2c1ncn2[C@@H]1O[C@H](COP(=O)(O)O)[C@@H](O)[C@H]1O [AMP]	completely inactive	inactive	
Pertussis toxin			Effect on the ATP response (IP3) ([2]; pertussis toxin 50 ng/ml, 24 h pretreatment): no effect
Nc1ncnc2c1ncn2[C@@H]1O[C@H](COP(=O)(O)OP(=O)(O)O)[C@@H](O)[C@H]1O [ADP]	completely inactive	inactive	[Ca2+]i response [3]: inactive; Effect on IP3 accumulation in concentration-action curves [2]: minimal
Nc1ncnc2c1ncn2[C@@H]1O[C@H](COP(=O)(O)OP(=O)(O)OP(=O)(O)OP(=O)(O)OP(=O)(O)OP(=O)(O)OC[C@H]2O[C@@H](n3cnc4c(N)ncnc43)[C@H](O)[C@@H]2O)[C@@H](O)[C@H]1O [AP6A]		inactive	
